From patent publication US7687510B2, “Pyrimidinone derivatives as therapeutic agents against acute and chronic inflammatory, ischaemic and remodelling processes” (Bayer Healthcare AG, priority 2002, dated 2010) come the findings set out here.

The first assay has as its target T1, human neutrophil elastase (HNE) (Homo sapiens, UniProt P08246).
T1 construct: purchased SERVA Electrophoresis GmbH, Heidelberg, Germany #20927.01
T1 sequence (P08246 30-267): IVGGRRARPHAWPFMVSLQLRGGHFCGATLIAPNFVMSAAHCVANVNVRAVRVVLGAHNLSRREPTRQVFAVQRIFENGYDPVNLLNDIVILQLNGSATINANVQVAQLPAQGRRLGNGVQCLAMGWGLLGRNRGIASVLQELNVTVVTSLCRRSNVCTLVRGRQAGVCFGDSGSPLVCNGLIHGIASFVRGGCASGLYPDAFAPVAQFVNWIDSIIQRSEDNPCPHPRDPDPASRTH
Put plainly: In vitro inhibition of HNE using a fluorogenic peptide substrate (continuous read-out signal, 384 MTP assay format). Format: biochemical. Particulars: substrate MeOSuc-Ala-Ala-Pro-Val-AMC, 37° C. How it is done: I. In vitro Enzyme Assays of Human Neutrophil Elastase (HNE)
assay buffer: 0.1 M HEPES-NaOH buffer pH 7.4, 0.5 M NaCl, 0.1% (w/v) bovine serum albumin;
suitable concentration (see below) of substrate in assay buffer;
suitable concentration of test compounds diluted with assay buffer from a 10 mM stock solution in DMSO.
The test solution is prepared by mixing 10 μl of test compound dilution, 20 μl of HNE enzyme dilution (final concentration 8-0.4 μU/ml, routinely 2.1 μU/ml) and 20 μl of substrate dilution (final concentration 1 mM-1 μM, routinely 20 μM), respectively. The solution is incubated for 0-2 hrs at 37° C. (routinely one hour). The florescence of the liberated AMC due to the enzymatic reaction is measured at 37° C. (TECAN spectra fluor plus plate reader). […] IC50 values are determined by RFU-versus-[I] plots. Km and Km(app.) values are determined by Lineweaver-Burk inverted to Ki values by Dixon plots.
For `N#CC1=C(N)N(c2cccc(C(F)(F)F)c2)C(=O)NC1c1ccc(C#N)cc1` (stereo not shown) [Example 9, 6-Amino-4-(4-cyanophenyl)-2-oxo-1-[3-(trifluoromethyl)phenyl]-1,2,3,4-tetrahydro-5-pyrimidinecarbonitrile], the half-inhibitory concentration (IC50) is 40 nM.

Turning to `CCOC(=O)C1=C(C)N(c2cccc(C(F)(F)F)c2)C(=O)N(C)C1c1ccc(C#N)cc1` (stereo not shown) [Example 14, Ethyl 4-(4-cyanophenyl)-3,6-dimethyl-2-oxo-1-[3-(trifluoromethyl)phenyl]-1,2,3,4-tetrahydro-5-pyrimidinecarboxylate], the 50% inhibitory concentration (IC50) amounted to 5 nM. Take `CCOC(=O)C1=C(C)N(c2cccc(C(F)(F)F)c2)C(=O)N(C(C)=O)C1c1ccc(C#N)cc1` (stereo not shown) [Example 15, Ethyl 3-acetyl-4-(4-cyanophenyl)-6-methyl-2-oxo-1-[3-(trifluoromethyl)phenyl]-1,2,3,4-tetrahydro-5-pyrimidinecarboxylate]: the IC50 stood at 8 nM.

In the case of `CCOC(=O)C1=C(C)N(c2cccc(C(F)(F)F)c2)C(=O)N(C(=O)OCC)C1c1ccc(C#N)cc1` (stereo not shown) [Example 16, Diethyl 6-(4-cyanophenyl)-4-methyl-2-oxo-3-[3-(trifluoromethyl)phenyl]-3,6-di-hydro-1,5(2H)-pyrimidinedicarboxylate], the half-inhibitory concentration (IC50) turned out to be 10 nM. `CCOC(=O)C1=C(CN(CC)CC)N(c2cccc(C(F)(F)F)c2)C(=O)NC1c1ccc(C#N)cc1` (stereo not shown) [Example 20, Ethyl 4-(4-cyanophenyl)-6-[(diethylamino)methyl]-2-oxo-1-[3-(trifluoromethyl)-phenyl]-1,2,3,4-tetrahydro-5-pyrimidinecarboxylate]: the half-inhibitory concentration (IC50) was 700 nM. For `CCOC(=O)C1=C(C)N(c2cccc(C(F)(F)F)c2)C(=O)NC1c1ccc(C#N)nc1` (stereo not shown) [Example 24, Ethyl 4-(6-cyano-3-pyridinyl)-6-methyl-2-oxo-1-[3-(trifluoromethyl)phenyl]-1,2,3,4-tetrahydro-5-pyrimidinecarboxylate], the half-inhibitory concentration (IC50) was found to be 13 nM. As for `CC1=C(C(=O)OCCc2ccncc2)C(c2ccc(C#N)cc2)NC(=O)N1c1cccc(C(F)(F)F)c1` (stereo not shown) [Example 28, 2-(4-Pyridinyl)ethyl 4-(4-cyanophenyl)-6-methyl-2-oxo-1-[3-(trifluoromethyl)phenyl]-1,2,3,4-tetrahydro-5-pyrimidinecarboxylate], the half-maximal inhibitory concentration (IC50) was found to be 50 nM. As for `CC1=C(C(=O)N(C)C)C(c2ccc(C#N)cc2)NC(=O)N1c1cccc(C(F)(F)F)c1` (stereo not shown) [Example 58], the half-inhibitory concentration (IC50) was 1100 nM. Still for that read-out and setting: then `CCOC(=O)C1=C(C)N(c2cccc(C(F)(F)F)c2)C(=O)N(CC(=O)N2CCN(C)CC2)C1c1ccc(C#N)cc1` (stereo not shown) [Example 60], with 5 nM. With `CCOC(=O)C1=C(C)N(c2cccc(C(F)(F)F)c2)C(=O)NC1c1cccc([N+](=O)[O-])c1` (stereo not shown) [Example 103, Ethyl 6-methyl-4-(3-nitrophenyl)-2-oxo-1-[3-(trifluoromethyl)phenyl]-1,2,3,4-tetra-hydro-5-pyrimidinecarboxylate], the IC50 was determined as 60 nM. As for `CCOC(=O)C1=C(C)N(c2cccc(C(F)(F)F)c2)C(=O)NC1c1ccc([N+](=O)[O-])cc1` (stereo not shown) [Example 110, Ethyl 6-methyl-4-(4-nitrophenyl)-2-oxo-1-[3-(trifluoromethyl)phenyl]-1,2,3,4-tetra-hydropyrimidine-5-carboxylate], the IC50 was 50 nM.

In the next assay the test system is human polymorphonuclear cells (PMNs). In words: In vitro PMN elastolysis assay (tritiated elastin). Format: cell-based. The conditions noted are these: at 1.2 μM; mean±s.e.m.; n=3 different donors at 3.6×10^5 cells per well. As to the method: In Vitro PMN Elastolysis Assay:
This assay is used to determine the elastolytic potential of human polymorphonuclear cells (PMNs) and assess the proportion of degradation due to neutrophil elastase [cf. Z. W. She et al., Am. J. Respir. Cell. Mol. Biol. 9, 386-392 (1993)].
Tritiated elastin, in suspension, is coated on to a 96 well plate at 10 μg per well. Test and reference [ZD-0892 (J. Med. Chem. 40, 1876-1885, 3173-3181 (1997), WO 95/21855) and α1 protease inhibitor (α1PI)] compounds are added to the wells at the appropriate concentrations. […] Porcine pancreatic elastase (1.3 μM is used as a positive control for the assay, and α1PI (1.2 μM) is used as the positive inhibitor of neutrophil elastase. The cellular control is PMNs without compound at each appropriate cell density. The cells plus compounds are incubated in a humidified incubator at 37° C. for 4 hours. The plates are centrifuged to allow the harvest of cell supernatant only. The supernatant is transferred in 75 μl volumes to corresponding wells of a 96 well Lumaplate™ (solid scintillant containing plates). The plates are dried until no liquid is visible in the wells and read in a beta counter for 3 minutes per well. […]
The compounds of this invention are evaluated for their inhibitory activity in this HNE-dependent model of neutrophil elastolysis.
For “α1PI: α1 protease inhibitor, reference and positive inhibitor of neutrophil elastase”, the inhibition of elastolysis is 83.46±3.97%.

Still in this assay, the particulars now being: mean±s.e.m.; n=2 different donors at 3.6×10^5 cells per well.
As to `COc1ccc(C(=O)N[C@H](C(=O)N2CCC[C@H]2C(=O)N[C@H](C(=O)C(F)(F)F)C(C)C)C(C)C)cc1` [ZD-0892], the IC50 was 45.5 ± 7.75 nM.
